Measurements published in patent publication US12492184B2, “Heteroaryl compounds, preparation methods and uses thereof” (InventisBio Co., Ltd., priority 2020, dated 2025).

Test system: HEK-Blue IL23 Reporter
Assay: HEK-Blue IL-23 STAT3 Reporter Assay
Assay type: cell-based, human
Conditions: SEAP read with QUANTI-Blue at OD655
Procedure: HEK-Blue IL23 cells (InvivoGen catalog #HKB-IL23) are designed for the detection of bioactive IL-23 by monitoring the activation of the STAT3 pathway. They were generated by stably introducing the genes for the human IL-23 receptor, STAT3, and the SEAP (secreted embryonic alkaline phosphatase) reporter gene into human HEK293 cell line.
Briefly, around 50,000 cells in DMEM medium supplemented with 10% heat inactivated FBS (˜180 ul) were seeded into each well and incubate for 48 hours at 37° C. with 5% CO2 in air. On day 3, one microliter of compound and 20 ul IL-23 were transferred to the assay plate respectively. The plate was left in the 37° C. incubator overnight. Two microliter of cell supernatant was transferred to a 384-well plate, and 18 ul of resuspended QUANTI-Blue solution was added to each well. SLAP levels were determined using Tecan Spark at OD655.
Cells with no IL23 added were used as Low control. Cells stimulated with IL23 were used as High control. Inhibition rate was calculated with the formula of % inhibition=100*(High control−Treated Well)/(High Control−Low control). IL-23 reporter assay inhibition IC50 was calculated with the equation of Y=Bottom+(Top-Bottom)/(1+10^((Log IC50−X)*HillSlope)).

[1] = Homo sapiens, HEK-Blue IL-23, HEK-Blue IL23 cells stimulated with IL-23 overnight
[2] = HEK-Blue IL23 cells stimulated with IL-23 overnight

SMILES | IC50 [1] [nM] | IC50 [2] [nM]
[2H]C([2H])([2H])NC(=O)c1nnc(NC(=O)C2CC2)cc1Nc1ncc(OC(F)(F)F)cc1S(C)(=O)=O (single isomer, unassigned) [Compound 53] | 1.9 | 
[2H]C([2H])([2H])NC(=O)c1nnc(NC(=O)C2CC2)cc1Nc1ncc(SC(F)(F)F)cc1S(C)(=O)=O (single isomer, unassigned) [Compound 54] | 1.5 | 
[2H]C([2H])([2H])NC(=O)c1cnc(NC(=O)C2CC2)cc1Nc1ncc(F)cc1S(C)(=O)=O (single isomer, unassigned) [Compound 55] | 1.5 | 
[2H]C([2H])([2H])NC(=O)c1nnc(NC(=O)C2CC2)cc1Nc1ncc(C(F)F)cc1S(C)(=O)=O (single isomer, unassigned) [Compound 58] | 2.7 | 
[2H]C([2H])([2H])NC(=O)c1nnc(NC(=O)C2CC2)cc1Nc1ncc(OCCOC)cc1S(C)(=O)=O (single isomer, unassigned) [Compound 59] | 0.4 | 
[2H]C([2H])([2H])NC(=O)c1nnc(NC(=O)C2CC2)cc1Nc1ncc(OC(F)F)cc1S(C)(=O)=O (single isomer, unassigned) [Compound 60] | 1.7 | 
[2H]C([2H])([2H])NC(=O)c1nnc(NC(=O)[C@H]2CC23CC3)cc1Nc1ncccc1S1(=O)=NCCC1 (single isomer, unassigned) [Compound 94] |  | 137
[2H]C([2H])([2H])NC(=O)c1nnc(NC(=O)[C@H]2CC23CC3)cc1Nc1ncccc1S(C)(=O)=NC (single isomer, unassigned) [Compound 97] |  | 1.4
[2H]C([2H])([2H])NC(=O)c1nnc(NC(=O)C2CC23CC3)cc1Nc1ncc(OC)cc1S(C)(=O)=O (centres unmarked) [Compound 1] | 3.5 | 
[2H]C([2H])([2H])NC(=O)c1nnc(NC(=O)[C@@H]2CC23CC3)cc1Nc1ncc(OC)cc1S(C)(=O)=O [Compound 2] | 4.3 | 
[2H]C([2H])([2H])NC(=O)c1nnc(NC(=O)C2CC23CC3)cc1Nc1ncc(F)cc1S(C)(=O)=O (centres unmarked) [Compound 3] | 7.1 | 
[2H]C([2H])([2H])NC(=O)c1nnc(NC(=O)C2CC23CC3)cc1Nc1nccc(C)c1S(C)(=O)=O (centres unmarked) [Compound 4] | 39.3 | 
[2H]C([2H])([2H])NC(=O)c1nnc(NC(=O)[C@H]2CC23CC3)cc1Nc1ncc(C2CC2)cc1S(C)(=O)=O [Compound 5] | 1.7 | 
[2H]C([2H])([2H])NC(=O)c1nnc(NC(=O)C2CC23CC3)cc1Nc1nccc(CO)c1S(C)(=O)=O (centres unmarked) [Compound 6] | 18.8 | 
[2H]C([2H])([2H])NC(=O)c1nnc(NC(=O)C2CC23CC3)cc1Nc1ncccc1S(C)(=N)=O (centres unmarked) [Compound 7] | 14.4 | 
[2H]C([2H])([2H])NC(=O)c1nnc(NC(=O)C2CC23CC3)cc1Nc1nccc2c1S(C)(=O)=NC2 (centres unmarked) [Compound 8] | 2.6 | 
[2H]C([2H])([2H])NC(=O)c1nnc(NC(=O)[C@H]2CC23CC3)cc1Nc1ccc(Cl)cc1S(C)(=O)=O [Compound 9] | 51 | 
[2H]C([2H])([2H])NC(=O)c1nnc(NC(=O)[C@H]2CC23CC3)cc1Nc1cc(Cl)ccc1S(C)(=O)=O [Compound 10] | 1820 | 
[2H]C([2H])([2H])NC(=O)c1nnc(NC(=O)C2CC23CC3)nc1Nc1ccccc1S(C)(=O)=O (centres unmarked) [Compound 11] | 121 | 
CS(=O)(=O)c1cccnc1Nc1cc(NC(=O)C2CC23CC3)ncc1C(=O)C1CC1 (centres unmarked) [Compound 12] | 140 | 

SMILES | IC50 [1] [nM] | IC50 [2] [nM]
[2H]C([2H])([2H])NC(=O)c1nnc(NC(=O)[C@H]2CC23CC3)cc1Nc1ccncc1S(C)(=O)=O [Compound 13] | 346 | 
[2H]C([2H])([2H])NC(=O)c1nnc(NC(=O)C2CC2)cc1Nc1ncc(OC)cc1S(C)(=O)=O [Compound 14] | 1.3 | 
[2H]C([2H])([2H])NC(=O)c1nnc(NC(=O)C2CCC2)cc1Nc1ncc(OC)cc1S(C)(=O)=O [Compound 15] | 9.1 | 
[2H]C([2H])([2H])NC(=O)c1nnc(NC(=O)C23CC(C2)C3)cc1Nc1ncc(OC)cc1S(C)(=O)=O [Compound 16] | 182 | 
[2H]C([2H])([2H])NC(=O)c1nnc(NC(=O)C2CCCC2)cc1Nc1ncc(OC)cc1S(C)(=O)=O [Compound 17] | 13.8 | 
[2H]C([2H])([2H])NC(=O)c1nnc(NC(=O)C(C)C)cc1Nc1ncc(OC)cc1S(C)(=O)=O [Compound 18] | 38.9 | 
[2H]C([2H])([2H])NC(=O)c1nnc(NC(=O)OC)cc1Nc1ncc(OC)cc1S(C)(=O)=O [Compound 19] | 20.9 | 
[2H]C([2H])([2H])NC(=O)c1nnc(NC23CC(C2)C3)cc1Nc1ncccc1S(C)(=O)=O [Compound 20] | 195 | 
[2H]C([2H])([2H])NC(=O)c1nnc(NC(=O)NC2CC2)cc1Nc1ncccc1S(C)(=O)=O [Compound 21] | 8.9 | 
[2H]C([2H])([2H])NC(=O)c1nnc(NC2CC2)cc1Nc1ncccc1S(C)(=O)=O [Compound 22] | 106 | 
COC(=O)Nc1cc(Nc2ncccc2S(C)(=O)=O)c(C(N)=O)nn1 [Compound 23] | 58.5 | 
[2H]C([2H])([2H])NC(=O)c1nnc(NC(=O)OC)cc1Nc1ncccc1S(C)(=O)=O [Compound 24] | 25.4 | 
[2H]C([2H])([2H])NC(=O)c1nnc(-c2cc(C)n[nH]2)cc1Nc1ncccc1S(C)(=O)=O [Compound 25] | ≥ 1000 | 
[2H]C([2H])([2H])NC(=O)c1nnc(NC(=O)[C@H]2CC23CC3)cc1Nc1ncc(OC)cc1S(C)(=O)=O [Compound 26] | 2.3 | 
[2H]C([2H])([2H])NC(=O)c1nnc(NC(=O)C2CC2(C)C)cc1Nc1ncc(OC)cc1S(C)(=O)=O (centres unmarked) [Compound 27] | 24.2 | 
[2H]C([2H])([2H])NC(=O)c1nnc(NC(=O)C2(C)CC2)cc1Nc1ncc(OC)cc1S(C)(=O)=O [Compound 28] | 35.1 | 
[2H]C([2H])([2H])NC(=O)c1nnc(NC(=O)c2ccc(F)cc2)cc1Nc1ncc(OC)cc1S(C)(=O)=O [Compound 29] | 350 | 
[2H]C([2H])([2H])NC(=O)c1nnc(NC(=O)c2ccn(C)n2)cc1Nc1ncc(OC)cc1S(C)(=O)=O [Compound 30] | 440 | 
[2H]C([2H])([2H])NC(=O)c1nnc(NC(=O)[C@H]2CC23CC3)cc1Nc1ncc(C(F)(F)F)cc1S(C)(=O)=O [Compound 32] | 5.3 | 
[2H]C([2H])([2H])NC(=O)c1nnc(NC(=O)[C@H]2CC23CC3)cc1Nc1ncc(C)cc1S(C)(=O)=O [Compound 33] | 0.9 | 

SMILES | IC50 [1] [nM] | IC50 [2] [nM]
[2H]C([2H])([2H])NC(=O)c1nnc(NC(=O)[C@H]2CC23CC3)cc1Nc1nccc(OC)c1S(C)(=O)=O [Compound 34] | 548 | 
[2H]C([2H])([2H])NC(=O)c1nnc(NC(=O)C2(F)CC2)cc1Nc1ncc(OC)cc1S(C)(=O)=O [Compound 35] | 11 | 
[2H]C([2H])([2H])NC(=O)c1nnc(NC(=O)C2CC(OC)C2)cc1Nc1ncc(OC)cc1S(C)(=O)=O (centres unmarked) [Compound 36] | 5.6 | 
[2H]C([2H])([2H])NC(=O)c1nnc(NC(=O)[C@H]2[C@@H]3COC[C@@H]32)cc1Nc1ncc(OC)cc1S(C)(=O)=O [Compound 37] | 10.2 | 
[2H]C([2H])([2H])NC(=O)c1nnc(NC(=O)[C@H]2[C@@H]3COC[C@@H]32)cc1Nc1ncccc1S(C)(=O)=O [Compound 38] | 15.3 | 
[2H]C([2H])([2H])NC(=O)c1nnc(NC(=O)[C@H]2CC23CC3)cc1Nc1nc2c(cc1S(C)(=O)=O)CN(C(=O)OCc1ccccc1)CC2 [Compound 39] | 3.2 | 
[2H]C([2H])([2H])NC(=O)c1nnc(NC(=O)[C@H]2CC23CC3)cc1Nc1nc2c(cc1S(C)(=O)=O)CNCC2 [Compound 40] | 54.4 | 
[2H]C([2H])([2H])NC(=O)c1nnc(NC(=O)[C@H]2CC23CC3)cc1Nc1nc2c(cc1S(C)(=O)=O)CN(C)CC2 [Compound 41] | 12.7 | 
[2H]C([2H])([2H])NC(=O)c1nnc(NC(=O)[C@H]2CC23CC3)cc1Nc1ncc(OCC)cc1S(C)(=O)=O [Compound 42] | 0.58 | 
[2H]C([2H])([2H])NC(=O)c1nnc(NC(=O)[C@H]2CC23CC3)cc1Nc1ncc(OC(C)C)cc1S(C)(=O)=O [Compound 43] | 0.34 | 
[2H]C([2H])([2H])NC(=O)c1nnc(NC(=O)[C@H]2CC23CC3)cc1Nc1ncc(CC)cc1S(C)(=O)=O [Compound 44] | 1 | 
[2H]C([2H])([2H])NC(=O)c1nnc(NC(=O)C2CC2)cc1Nc1ncc(F)cc1S(C)(=O)=O [Compound 45] | 1.5 | 
[2H]C([2H])([2H])NC(=O)c1nnc(NC(=O)C2CC2)cc1Nc1ncc(C2CC2)cc1S(C)(=O)=O [Compound 46] | 0.2 | 
[2H]C([2H])([2H])NC(=O)c1nnc(NC(=O)C2CC2)cc1Nc1ncc(C(F)(F)F)cc1S(C)(=O)=O [Compound 47] | 1.4 | 
[2H]C([2H])([2H])NC(=O)c1nnc(NC(=O)C2CC2)cc1Nc1ncc(C)cc1S(C)(=O)=O [Compound 48] | 0.46 | 
[2H]C([2H])([2H])NC(=O)c1nnc(C(F)F)cc1Nc1ncccc1S(C)(=O)=O [Compound 49] | > 1000 | 
[2H]C([2H])([2H])NC(=O)c1nnc(Nc2cnc(C(C)(C)O)nc2)cc1Nc1ncc(OC)cc1S(C)(=O)=O [Compound 50] | 9.3 | 
[2H]C([2H])([2H])NC(=O)c1nnc(NC(=O)NC2CC2)cc1Nc1ncc(OC)cc1S(C)(=O)=O [Compound 51] | 6.2 | 
[2H]C([2H])([2H])NC(=O)c1nnc(NC(=O)C2CC2)cc1Nc1ncc(Cl)cc1S(C)(=O)=O [Compound 52] | 2.5 | 
